What all share (assay): MTT assay, curcumin concentration killing 50% of cells
Holding throughout (assay type): cell-based
(Tetrazolium dyes change colour on reduction, which living cells bring about.)

The subject of one test is A549. To be noted: A549, human lung carcinoma; mean±SD (n=6); read-out: curcumin concentration required for killing 50% of the cells. On the procedure:
(§1) In this experiment, whether the liposome has the capability of carrying drugs is observed by MTT assay. First, curcumin was added into cells at different concentrations, to obtain the curcumin concentration required for killing 50% of the cells. Next, the liposome with curcumin at different concentrations (curcumin-liposome) was sent into cells of the same type respectively, to obtain the curcumin concentration required for killing 50% of the cells. In Table 1, all the concentrations are expressed as mean±standard deviation (SD) (n=6).

In another test the test system is B16/F10. The conditions noted are these: B16/F10, mouse melanoma; mean±SD (n=6); read-out: curcumin concentration required for killing 50% of the cells. How it is done:
as §1

The test system of a further test is CT-26. To be noted: CT26; CT-26, mouse colorectal adenocarcinoma; mean±SD (n=6); read-out: curcumin concentration required for killing 50% of the cells. How it is done:
as §1

In the next test the test system is HT-29. The conditions noted are these: HT-29, human colorectal adenocarcinoma; mean±SD (n=6); read-out: curcumin concentration required for killing 50% of the cells. How it is done: as §1
Another test deals with HeLa. To be noted: human cervical cancer, mean±SD (n=6), read-out: curcumin concentration required for killing 50% of the cells. On the procedure: as §1
The subject of the next test is HepG2. To be noted: HepG2, human hepatocellular carcinoma; mean±SD (n=6); read-out: curcumin concentration required for killing 50% of the cells. How it is done:
as §1

In a further test the test system is JC. The conditions noted are these: mouse breast adenocarcinoma, mean±SD (n=6), read-out: curcumin concentration required for killing 50% of the cells. On the procedure: as §1
Another test relates to LL-2. The conditions noted are these: LL-2, mouse lung carcinoma; mean±SD (n=6); read-out: curcumin concentration required for killing 50% of the cells. On the procedure: as §1

As for `COc1cc(/C=C/C(=O)CC(=O)/C=C/c2ccc(O)c(OC)c2)ccc1O` [Curcumin, curcumin], the IC50 stood at 30 ± 9.45 µM with A549; 8.16 ± 1.01 µM in the test with B16/F10; 7.92 ± 0.77 µM with CT-26; 12.9 ± 1.18 µM in the test with HT-29; 17.7 ± 6.95 µM with HeLa; 12.2 ± 1.11 µM in the test with HepG2. For the same molecule, the IC50 with JC was 11 ± 1.47 µM; in the test with LL-2 it was 10.8 ± 2.33 µM.

For the origin of these results see US8871251B2, “Liposome and method for producing the same” (Can Heal BioMediTech Corp., priority 2008, dated 2014).
